This is an account of results in PMC5615061, “Discovery of a Low Toxicity O-GlcNAc Transferase (OGT) Inhibitor by Structure-based Virtual Screening of Natural Products” (Scientific Reports, 2017).

Like-named read-outs stand apart in the source and are kept apart here.

For the test, the target named is T1, OGT (O-GlcNAc transferase) (Homo sapiens, UniProt O15294).
T1 construct: full-length OGT, recombinant, purified; plasmid gift of D. J. Vocadlo
T1 sequence (O15294 2-1036 isoform O15294-3): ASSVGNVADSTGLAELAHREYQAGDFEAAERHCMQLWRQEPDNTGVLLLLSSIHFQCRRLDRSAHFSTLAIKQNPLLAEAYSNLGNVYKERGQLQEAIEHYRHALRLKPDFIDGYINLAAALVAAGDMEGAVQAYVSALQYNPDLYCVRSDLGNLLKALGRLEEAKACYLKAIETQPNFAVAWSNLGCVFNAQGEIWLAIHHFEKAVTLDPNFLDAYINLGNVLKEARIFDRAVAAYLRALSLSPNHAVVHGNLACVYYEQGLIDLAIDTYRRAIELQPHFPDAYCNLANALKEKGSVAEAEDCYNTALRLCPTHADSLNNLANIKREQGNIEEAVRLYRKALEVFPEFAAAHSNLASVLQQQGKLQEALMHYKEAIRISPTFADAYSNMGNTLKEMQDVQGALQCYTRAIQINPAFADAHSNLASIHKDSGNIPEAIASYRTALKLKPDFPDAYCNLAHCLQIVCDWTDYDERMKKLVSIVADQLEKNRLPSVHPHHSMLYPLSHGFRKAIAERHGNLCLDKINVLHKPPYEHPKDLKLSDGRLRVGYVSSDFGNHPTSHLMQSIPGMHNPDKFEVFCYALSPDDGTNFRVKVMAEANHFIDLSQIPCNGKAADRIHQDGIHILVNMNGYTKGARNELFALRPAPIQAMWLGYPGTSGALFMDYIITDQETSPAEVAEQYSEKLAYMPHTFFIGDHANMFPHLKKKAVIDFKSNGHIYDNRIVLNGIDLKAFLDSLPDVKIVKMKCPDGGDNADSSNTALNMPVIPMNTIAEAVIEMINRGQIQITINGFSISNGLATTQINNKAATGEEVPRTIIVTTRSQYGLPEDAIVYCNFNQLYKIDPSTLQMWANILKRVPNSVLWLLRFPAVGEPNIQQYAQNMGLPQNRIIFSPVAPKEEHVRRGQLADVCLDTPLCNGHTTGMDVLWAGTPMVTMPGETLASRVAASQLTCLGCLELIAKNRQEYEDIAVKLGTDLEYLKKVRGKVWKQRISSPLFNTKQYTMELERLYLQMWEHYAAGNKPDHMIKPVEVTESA
Nature of the test: UDP-Glo glycosyltransferase assay, luminescence. The class given is biochemical.

The IC50 is the point on the concentration scale where inhibition reaches its midpoint. A high value points to weaker potency in that assay. `O=C1C[C@@H](c2ccc(O)c(-c3c(O)cc(O)c4c3O[C@H](c3ccc(O)cc3)CC4=O)c2)Oc2cc(O)cc(O)c21` [L01] yielded a 50% inhibitory concentration (IC50) (250 nM OGT, 125 μM CKII peptide, 40 μM UDP-GlcNAc, pH 7.4, time-dependent, not fully UDP-GlcNAc competitive) of 21.8 µM. That is a double-digit micromolar value.
`COc1ccccc1[C@@H](NS(=O)(=O)c1ccc2[nH]c(=O)ccc2c1)C(=O)N(Cc1ccco1)Cc1cccs1` [OSMI-1] gave an IC50 of 3.5 µM.
